Reference: the NIST ThermoML archive (doi:10.1016/j.jct.2009.12.002)
Where “and” joins values, the source holds several entries; their conditions need not be identical. Equal values may be shown once. Numbers after ± are expanded uncertainties.

Details: Liquid; for mass density: 101.33 kPa, Pycnometric method; for speed of sound: Pulse-echo method

`CC(C)CCCCCCCOC(=O)c1ccccc1C(=O)OCCCCCCCC(C)C` showed a mass density (273.84 K) of 980.22 ± 0.39 kg/m3, a mass density (274.06 K) of 980.07 ± 0.39 kg/m3 and a mass density (274.07 K) of 980.08 ± 0.39 kg/m3. The mass density (274.35 K) was 979.86 ± 0.39 kg/m3, the mass density (282.95 K) was 973.75 ± 0.38 kg/m3 and the speed of sound (293.06 K, 1185 kPa) was 1436.6 ± 3 m/s. The speed of sound (298.08 K, 1100 kPa) was 1419.9 ± 3 m/s, the speed of sound (298.08 K, 5400 kPa) was 1439 ± 3 m/s and the speed of sound (298.08 K, 10180 kPa) was 1459.7 ± 3 m/s. It also gave a speed of sound (298.08 K, 16980 kPa) of 1488 ± 3.1 m/s, a speed of sound (298.08 K, 25560 kPa) of 1522 ± 3.2 m/s and a speed of sound (298.08 K, 32760 kPa) of 1549.3 ± 3.2 m/s. For the same compound, the speed of sound (298.08 K, 40150 kPa) was 1576.5 ± 3.3 m/s, the speed of sound (298.08 K, 47800 kPa) was 1602.9 ± 3.3 m/s and the speed of sound (298.08 K, 55510 kPa) was 1629.7 ± 3.4 m/s. It also gave a speed of sound (298.08 K, 62350 kPa) of 1652.4 ± 3.4 m/s, a mass density (298.25 K) of 962.88 ± 0.36 kg/m3 and a mass density (298.28 K) of 962.83 ± 0.37 kg/m3. The mass density (305.26 K) was 957.83 ± 0.37 kg/m3, the speed of sound (313.18 K, 1050 kPa) was 1367.8 ± 2.9 m/s and the speed of sound (313.18 K, 1110 kPa) was 1367.9 ± 2.9 m/s. The speed of sound (313.18 K, 15410 kPa) was 1432.5 ± 3 m/s, the speed of sound (313.18 K, 29860 kPa) was 1491.8 ± 3.1 m/s and the speed of sound (313.18 K, 44860 kPa) was 1548.5 ± 3.2 m/s. For the same compound, the speed of sound (313.18 K, 60370 kPa) was 1602.9 ± 3.3 m/s, the speed of sound (313.18 K, 75510 kPa) was 1652.4 ± 3.4 m/s and the speed of sound (313.18 K, 89970 kPa) was 1697 ± 3.5 m/s. The speed of sound (313.18 K, 105660 kPa) was 1742.8 ± 3.6 m/s, the speed of sound (313.18 K, 119950 kPa) was 1782.4 ± 3.7 m/s and the mass density (313.27 K) was 952.21 ± 0.38 kg/m3 and 952.15 ± 0.38 kg/m3. It also gave a speed of sound (333.24 K, 1100 kPa) of 1304.1 ± 2.7 m/s, a speed of sound (333.24 K, 1130 kPa) of 1304.1 ± 2.7 m/s and a speed of sound (333.24 K, 14910 kPa) of 1370.1 ± 2.9 m/s. For the same compound, the speed of sound (333.24 K, 29760 kPa) was 1434.3 ± 3 m/s, the speed of sound (333.24 K, 45000 kPa) was 1494.4 ± 3.1 m/s and the speed of sound (333.24 K, 60580 kPa) was 1551.1 ± 3.2 m/s. It also gave a speed of sound (333.24 K, 75550 kPa) of 1601.7 ± 3.3 m/s, a speed of sound (333.24 K, 90480 kPa) of 1649.2 ± 3.4 m/s and a speed of sound (333.24 K, 105430 kPa) of 1694 ± 3.5 m/s. It also gave a speed of sound (333.24 K, 120280 kPa) of 1736.3 ± 3.6 m/s, a speed of sound (333.24 K, 139660 kPa) of 1788.5 ± 3.7 m/s and a mass density (333.28 K) of 937.93 ± 0.4 kg/m3. For the same compound, the speed of sound (353.18 K, 1010 kPa) was 1241.9 ± 2.6 m/s, the speed of sound (353.18 K, 1280 kPa) was 1243.1 ± 2.7 m/s and the speed of sound (353.18 K, 10060 kPa) was 1288.5 ± 2.7 m/s. The speed of sound (353.18 K, 19830 kPa) was 1335.3 ± 2.8 m/s, the speed of sound (353.18 K, 29890 kPa) was 1380.3 ± 2.9 m/s and the speed of sound (353.18 K, 40170 kPa) was 1423.1 ± 3 m/s. It also gave a speed of sound (353.18 K, 50230 kPa) of 1462.7 ± 3 m/s, a speed of sound (353.18 K, 60350 kPa) of 1500.4 ± 3.1 m/s and a speed of sound (353.18 K, 70310 kPa) of 1535.6 ± 3.2 m/s. For the same compound, the speed of sound (353.18 K, 80170 kPa) was 1569 ± 3.2 m/s, the speed of sound (353.18 K, 90020 kPa) was 1601 ± 3.3 m/s and the speed of sound (353.18 K, 104640 kPa) was 1646 ± 3.4 m/s. For the same compound, the speed of sound (353.18 K, 122120 kPa) was 1697.1 ± 3.5 m/s, the speed of sound (353.18 K, 139450 kPa) was 1745 ± 3.6 m/s and the mass density (353.29 K) was 923.76 ± 0.43 kg/m3. The speed of sound (373.1 K, 460 kPa) was 1179.1 ± 2.5 m/s, the speed of sound (373.1 K, 1150 kPa) was 1183.1 ± 2.5 m/s and the speed of sound (373.1 K, 1350 kPa) was 1184.4 ± 2.5 m/s. It also gave a speed of sound (373.1 K, 10370 kPa) of 1233.7 ± 2.6 m/s, a speed of sound (373.1 K, 20030 kPa) of 1282.4 ± 2.7 m/s and a speed of sound (373.1 K, 29930 kPa) of 1328.6 ± 2.8 m/s. The speed of sound (373.1 K, 40300 kPa) was 1373.8 ± 2.9 m/s, the speed of sound (373.1 K, 50050 kPa) was 1413.5 ± 2.9 m/s and the speed of sound (373.1 K, 60040 kPa) was 1452 ± 3 m/s. It also gave a speed of sound (373.1 K, 70060 kPa) of 1488.7 ± 3.1 m/s, a speed of sound (373.1 K, 80050 kPa) of 1523.7 ± 3.2 m/s and a speed of sound (373.1 K, 90060 kPa) of 1557.2 ± 3.2 m/s. It also gave a speed of sound (373.1 K, 100440 kPa) of 1590.2 ± 3.3 m/s, a speed of sound (373.1 K, 110260 kPa) of 1620.7 ± 3.3 m/s and a speed of sound (373.1 K, 120180 kPa) of 1649.7 ± 3.4 m/s. It also gave a speed of sound (373.1 K, 130570 kPa) of 1679.6 ± 3.5 m/s, a speed of sound (373.1 K, 140300 kPa) of 1707 ± 3.5 m/s and a mass density (373.29 K) of 909.62 ± 0.46 kg/m3. The mass density (393.31 K) was 895.47 ± 0.48 kg/m3, the speed of sound (393.54 K, 1240 kPa) was 1125.2 ± 2.4 m/s and the speed of sound (393.54 K, 1280 kPa) was 1125.4 ± 2.4 m/s. For the same compound, the speed of sound (393.54 K, 14940 kPa) was 1203.3 ± 2.5 m/s, the speed of sound (393.54 K, 29730 kPa) was 1277.1 ± 2.7 m/s and the speed of sound (393.54 K, 44510 kPa) was 1343.3 ± 2.8 m/s. For the same compound, the speed of sound (393.54 K, 59690 kPa) was 1404.8 ± 2.9 m/s, the speed of sound (393.54 K, 75010 kPa) was 1462 ± 3 m/s and the speed of sound (393.54 K, 104930 kPa) was 1563 ± 3.2 m/s. For the same compound, the speed of sound (393.54 K, 122450 kPa) was 1616.7 ± 3.3 m/s, the speed of sound (393.54 K, 139770 kPa) was 1666.6 ± 3.4 m/s and the mass density (413.33 K) was 881.29 ± 0.51 kg/m3. For the same compound, the speed of sound (413.41 K, 1110 kPa) was 1069.6 ± 2.3 m/s, the speed of sound (413.41 K, 1130 kPa) was 1069.8 ± 2.3 m/s and the speed of sound (413.41 K, 14800 kPa) was 1152.3 ± 2.5 m/s. For the same compound, the speed of sound (413.41 K, 29640 kPa) was 1229.8 ± 2.6 m/s, the speed of sound (413.41 K, 45070 kPa) was 1301.7 ± 2.7 m/s and the speed of sound (413.41 K, 60270 kPa) was 1365.4 ± 2.8 m/s. It also gave a speed of sound (413.41 K, 75540 kPa) of 1423.9 ± 3 m/s, a speed of sound (413.41 K, 90150 kPa) of 1476 ± 3.1 m/s and a speed of sound (413.41 K, 105150 kPa) of 1526 ± 3.2 m/s. It also gave a speed of sound (413.41 K, 119720 kPa) of 1571.9 ± 3.2 m/s and a speed of sound (413.41 K, 139510 kPa) of 1630.3 ± 3.4 m/s.
